{"source": "patent US20100152239A1", "about": "“Method to Improve Survival in Sepsis” (priority 2008, published 2010)", "key": {"hemorrhagic rats": {"test_system": "hemorrhagic rats", "experiment": "Survival after severe hemorrhage and resuscitation", "type": "in vivo, rat", "details": "for animals with hemorrhagic shock protected: n=7/group", "experimental": "Adult male Sprague-Dawley (350-450 g) rats were purchased from Harlen Sprague-Dawley (Indianapolis, Ind., USA) and allowed to acclimate for 7 days, housed at 25° C. on a 12-hr light/dark cycle. Animals were randomly grouped and assigned to a specific experiment. Investigators were blinded to the experimental treatment.\nAnimals were anaesthetized by inhalation of isoflurane (5% induction, 2% maintenance; Minrad, Buffalo, N.Y., USA) and subjected to surgical catheter placement into the femoral artery and vein under sterile conditions. To avoid blood clot and maintain catheter patency, the catheters were flushed with 1% heparin solution immediately before placement. Heparin was not used in vivo during the experiment or observation period in agreement with previous studies. After the catheter implantation, the blood pressure and the heart rate were recorded for 15 min. to establish a physiological baseline prior the hemorrhage procedure. Then, the animals were subjected to hemorrhage over 15 min. to reach a mean arterial blood pressure (MAP) of 35-40 mmHg and subsequent maintenance of this blood pressure by continued blood withdrawal for another 15 min. After the shock phase, resuscitated animals received specific resuscitation treatment over 40 min. with a total volume of 15 ml/kg (equivalent to 1000 ml of Hextend in a 70 kg person). The femoral artery was catheterized with a catheter R-FAC (Braintree Scientific, Inc., Braintree, Mass., USA) previously flushed with 1% heparin in 0.9% saline to allow spontaneous bleeding due to arterial blood pressure. Shed blood was considered lost and it was not reinfused. After resuscitation treatment, the animals were kept anesthetized for 2 hrs to record heart rate, blood pressure and blood chemistry. The control animals were also anesthetized with isoflurane for blood collection. Then, the anesthesia was stopped and the animals were allowed to recover from anesthesia and housed individually in regular cages. Splenectomy was performed as we described previously. Briefly, the spleen was identified following a midline laparotomy incision, and removed after appropriate blood vessel ligation. Sham animals underwent laparotomy without splenectomy.\nAll data in the figures and text are expressed as mean±standard deviation (SD). Statistical analyzes were performed using the one-way ANOVA with multiple pairwise comparisons with the Bonferroni's adjustment for multiple hypothesis testing. The Student's t-test was used to compare mean values between two experimental groups. Statistical analyzes of survival were determined using the logrank test. P-values<0.05 were considered statistically significant.\nAdult male Sprague-Dawley hemorrhagic rats received no resuscitation (NR) or were resuscitated with 15 ml/kg (i.v.) Hextend (HEXT) or Hextend supplemented with GTS (GTS). (A) Arterial blood pressure was recorded during hemorrhage and the resuscitation treatment. (B) All animals without resuscitation treatment (NR; n=10) died within the first 5 hrs after hemorrhage with an average time of death of 161±26 min. Resuscitation with Hextend allowed the animals to restore normal blood pressure and tissue perfusion, and yet 90% of the animals died (n=9). […] P<0.05 survival logrank test versus NR (*) or HXT(#)."}, "[1]": {"experiment": "Arterial blood pressure during hemorrhage and resuscitation", "type": "in vivo, rat", "details": "15 ml/kg resuscitation fluid i.v.", "quoted_text": "Animals were anaesthetized by inhalation of isoflurane (5% induction, 2% maintenance; Minrad, Buffalo, N.Y., USA) and subjected to surgical catheter placement into the femoral artery and vein under sterile conditions. To avoid blood clot and maintain catheter patency, the catheters were flushed with 1% heparin solution immediately before placement. […] After the catheter implantation, the blood pressure and the heart rate were recorded for 15 min. to establish a physiological baseline prior the hemorrhage procedure. Then, the animals were subjected to hemorrhage over 15 min. to reach a mean arterial blood pressure (MAP) of 35-40 mmHg and subsequent maintenance of this blood pressure by continued blood withdrawal for another 15 min. After the shock phase, resuscitated animals received specific resuscitation treatment over 40 min. with a total volume of 15 ml/kg (equivalent to 1000 ml of Hextend in a 70 kg person). The femoral artery was catheterized with a catheter R-FAC (Braintree Scientific, Inc., Braintree, Mass., USA) previously flushed with 1% heparin in 0.9% saline to allow spontaneous bleeding due to arterial blood pressure. Shed blood was considered lost and it was not reinfused. After resuscitation treatment, the animals were kept anesthetized for 2 hrs to record heart rate, blood pressure and blood chemistry. […]"}, "[2]": {"experiment": "Blood chemistry during resuscitation (i-Stat)", "type": "in vivo, rat", "details": "blood at 2 hrs after hemorrhage; n=4/group", "experimental": "(§1) Activation Blood was collected at 2 hrs after the hemorrhagic shock and analyzed using the i-Stat blood analyzer (Abbot Laboratories, IL, USA). Lung function was assessed by analyzing blood gases including total and partial carbon dioxide (TCO2, PCO2), bicarbonate (HCO3), pH and the base excess of extracellular fluid (BEecf). The organ function tests include […] sodium, potassium, chloride, the anion gap (AnGap), total plasma protein (TP), and blood urea nitrogen (BUN). Blood chemistry also included glucose, hematocrit and hemoglobin. The systemic inflammatory status was assessed by analyzing critical pro-inflammatory cytokines and cardiodepressant factors such as TNF and HMGB1. The major organs were collected and immediately sliced and washed with PBS at 4° C. TNF concentrations in serum and major organs were determined by ELISA (R&D Systems, Inc., Minneapolis, Minn., USA). HMGB1 was analyzed by Western blot as previously described."}, "TNF [3]": {"test_system": "TNF", "experiment": "TNF protein in serum and organs by ELISA during resuscitation", "type": "in vivo, rat", "details": "non-splenectomized animals; 2 hrs; n=4/group", "experimental": "as §1"}, "p65RelA NF-κB": {"test_system": "p65RelA NF-κB", "experiment": "p65RelA NF-κB binding to DNA in organs (TransAM DNA-Binding ELISA)", "type": "in vivo, rat", "details": "nuclear extracts at 2 hrs after hemorrhage", "experimental": "(§2) Homogenates were normalized by protein concentration and the activation of IκBα was analyzed by Western blot by using anti-IκBα polyclonal antibody ab7217 and anti-phosphorylated-IκBα(phospho S32+S36) monoclonal antibody [clone39A1431] ab12135 (Abcam; Cambridge, Mass., USA). Transcriptional activity of splenic p65RelA was analyzed by TransAM DNABinding ELISA (Active Motif; Cambridge, Mass., USA) following manufacturer's instructions. […] Protein levels were measured using the Bradford method (BIO-RAD) and PARP activity was normalized to protein content."}, "RelB NF-κB": {"test_system": "RelB NF-κB", "experiment": "RelB NF-κB binding to DNA in spleen (TransAM DNA-Binding ELISA)", "type": "in vivo, rat", "details": "nuclear extracts at 2 hrs after hemorrhage"}, "mRNA TNF": {"test_system": "mRNA TNF", "experiment": "TNF transcription in heart and spleen by real-time PCR", "type": "in vivo, rat", "details": "2 hrs after hemorrhage; as compared with Hextend; n=4/group", "experimental": "We analyzed mRNA TNF levels in the heart and the spleen by real-time PCR (FIG. 5, GTS inhibits TNF transcription in the spleen during resuscitation. Organs from control or hemorrhagic animals without or with resuscitation were analyzed at 2 hrs after hemorrhage. TNF transcription in the (A) heart and (B) spleen was analyzed by real-time PCR. * represents P<0.05 versus HXT (n=4/group; one-way ANOVA with Bonferroni's corrections)). Hemorrhage increased mRNA TNF levels in both the heart and the spleen as analyzed by real-time PCR. […] In order to determine whether the inhibition of splenic TNF is sufficient to account for the anti-inflammatory potential of GTS, we analyzed the pharmacological implications of the spleen during resuscitation."}, "TNF [4]": {"test_system": "TNF", "experiment": "TNF protein in splenectomized hemorrhagic animals after resuscitation", "type": "in vivo, rat", "details": "n=4/group", "experimental": "as §1"}, "HMGB1": {"test_system": "HMGB1", "experiment": "Serum HMGB1 by Western blot during resuscitation", "type": "in vivo, rat", "details": "2 hrs after hemorrhage; n=4/group", "experimental": "as §1"}, "[5]": {"test_system": "poly(ADP-ribose) polymerase (PARP)", "experiment": "PARP activity in organ homogenates", "type": "in vivo, rat", "details": "liver homogenates; n=4/group", "experimental": "as §2"}, "[6]": {"details": "rats; cited from earlier work"}, "[7]": {"details": "mice; cited from earlier work"}, "macrophages": {"test_system": "macrophages", "details": "via alpha7nAChR; cited from earlier work"}, "serum TNF and HMGB1": {"test_system": "serum TNF and HMGB1", "details": "cited from earlier work"}, "[8]": {"test_system": "RAW264.7 macrophage cells", "details": "via alpha7nAchR; cited from earlier work"}}, "data": [{"smiles": "COc1ccc(/C=C2\\CCCN=C2c2cccnc2)c(OC)c1", "note": "[GTS, 3-[(2,4-dimethoxy)benzylidene]-anabaseine]", "values": [{"measurement": "animals with hemorrhagic shock protected", "setting": "hemorrhagic rats; 0.02 mg/kg GTS in Hextend", "value": 17, "unit": "%"}, {"measurement": "protection as compared with Hextend solution alone (logrank)", "setting": "hemorrhagic rats; 0.2 mg/kg GTS", "value": "statistically significant protection"}, {"measurement": "animals with hemorrhagic shock protected", "setting": "hemorrhagic rats; 0.2 mg/kg GTS in Hextend", "value": 67, "unit": "%"}, {"measurement": "protection as compared with Hextend solution alone (logrank)", "setting": "hemorrhagic rats; 2 mg/kg GTS", "value": "statistically significant protection"}, {"measurement": "survival from lethal hemorrhage", "setting": "hemorrhagic rats; Hextend supplemented with 350 uM GTS, 15 ml/kg i.v., n=7, followed up to 7 days", "value": "rescued all the animals from lethal hemorrhage"}, {"measurement": "blood pressure after resuscitation", "setting": "[1]", "value": "re-established blood pressure"}, {"measurement": "AnGap, bicarbonate and chloride", "setting": "[2]", "value": "re-established normal values of AnGap and bicarbonate but not hypochloremia"}, {"measurement": "hyperglycemic response (glucose)", "setting": "[2]", "value": "significantly prevented"}, {"measurement": "metabolic acidosis (pH)", "setting": "[2]", "value": "prevented metabolic acidosis"}, {"measurement": "uremia (blood urea nitrogen)", "setting": "[2]", "value": "did not prevent uremia"}, {"measurement": "TNF levels in organs (lung, liver, heart, spleen)", "setting": "TNF [3]", "value": "blunted TNF levels in all of the organs"}, {"measurement": "serum (circulating) TNF levels", "setting": "TNF [3]", "value": "circulating TNF levels similar to those in control mice"}, {"measurement": "p65RelA NF-κB activation in organs (heart, liver, spleen)", "setting": "p65RelA NF-κB", "value": "inhibited p65RelA NF-κB in most of the organs but not in the heart"}, {"measurement": "RelB NF-κB activation in spleen", "setting": "RelB NF-κB", "value": "not affected"}, {"measurement": "mRNA TNF levels in heart and spleen", "setting": "mRNA TNF", "value": "decreased mRNA TNF levels in the spleen but not in the heart"}, {"measurement": "TNF levels in serum, lung and heart of splenectomized animals", "setting": "TNF [4]", "value": "significantly inhibited serum TNF levels as well as TNF levels in the lung and the heart"}, {"measurement": "systemic (serum) TNF levels in splenectomized animals", "setting": "TNF [4]", "value": "significantly inhibited systemic TNF levels"}, {"measurement": "serum HMGB1 levels", "setting": "HMGB1", "value": "no serum HMGB1 was found"}, {"measurement": "hepatic PARP activity", "setting": "[5]", "value": "inhibited PARP activation"}, {"measurement": "effect on dopamine turnover", "setting": "[6]", "value": "no effect"}, {"measurement": "effect on locomotor activity", "setting": "[7]", "value": "no effect"}]}, {"smiles": "CN1CCCC1c1cccnc1", "note": "(stereo not drawn) [nicotine]", "values": [{"measurement": "production of TNF and HMGB1 in macrophages", "setting": "macrophages", "value": "inhibits TNF and HMGB1 production"}, {"measurement": "effect on locomotor activity", "setting": "[7]", "value": "biphasic effect"}, {"measurement": "survival", "setting": "serum TNF and HMGB1; experimental models of systemic inflammation", "value": "improves survival"}, {"measurement": "serum TNF and HMGB1 levels", "setting": "serum TNF and HMGB1; in vivo treatment, experimental models of systemic inflammation", "value": "inhibits serum TNF and HMGB1 levels"}, {"measurement": "systemic TNF levels in sham versus splenectomized animals", "setting": "serum TNF and HMGB1; previous studies", "value": "attenuated systemic TNF levels in sham but not in splenectomized animals"}, {"measurement": "endotoxin-induced p65NF-κB activation", "setting": "[8]", "value": "inhibits endotoxininduced p65NF-κB activation"}]}]}
